From ChEMBL document CHEMBL5729163, “Substituted cyclohexyl compounds as NOP inhibiiors” (2022)

target: Nociceptin receptor (Homo sapiens, UniProt P41146); test: Cell-Based NOP Assay: Formula (I) compounds were tested for antagonism of the nociceptin receptor (NOP) in a cell-based cAMP assay, using the LANCE cAMP Detection Kit, Perkin Elmer (Waltham, Mass.). This assay (LANCE cAMP) is a homogeneous, time-resolved fluorescence resonance energy transfer (TR-FRET) immunoassay designed to measure cAMP produced upon modulation of adenylyl cyclase activity by G protein-coupled receptors (GPCRs).ProtocolCells expressing human opioid NOP (ValiScreen cell line, cat #ES-230-C Perkin Elmer (Waltham, Mass.) were dispensed in simulation buffer (5 mM Hepes, 0.1% BSA, 0.5 mM IBMX in Hanks Buffered Saline Solution) at 2.5 μL cells per well (400 cells/well) into a 1536 white TC-treated assay plate. Compound was then added and plates were incubated for 15 minutes at room temperature. To each well was added 2.5 μL of a solution containing forskolin (3 μM final) and nociceptin peptide (390 pM final) diluted in stimulation buffer, and the plates were incubated for 30 minutes at room temperature. To each well was dispensed 5 μL of LANCE Ultra detection (1:300 dilution of anti-cAMP ULight with a 1:100 dilution of Eu-cAMP tracer diluted in cAMP Detection Buffer) reagent, and the plates were incubated for 1 hr at room temperature. The plate was then read on the ViewLux microplate reader (Perkin Elmer, Waltham, Mass.) using the LANCE 1536 protocol with 60 second exposure times and 50 μs delay. This protocol has an excitation wavelength of 340 nm (DUG11 filter) and emission wavelengths of 615 nm (Eu-Donor) and 665 nm (Alexa 647 cAMP antibody acceptor).Data AnalysisData was analyzed, normalized, and visualized using ACAS (John McNeil & Co.). Efficacy was calculated using activity of the vehicle (DMSO) as 0% efficacy and the activity of the corresponding reference positive control (SCH 221510, Tocris Bioscience (Pittsburgh, Pa.), Catalog number 3240) as 100% efficacy. Activity was calculated as the ratio of donor and acceptor emissions. All curve fits and IC50 determinations were performed using a non-linear regression model. The IC50 value was measured as the concentration at which half-maximal response was calculated.
Sequence (P41146 whole entry): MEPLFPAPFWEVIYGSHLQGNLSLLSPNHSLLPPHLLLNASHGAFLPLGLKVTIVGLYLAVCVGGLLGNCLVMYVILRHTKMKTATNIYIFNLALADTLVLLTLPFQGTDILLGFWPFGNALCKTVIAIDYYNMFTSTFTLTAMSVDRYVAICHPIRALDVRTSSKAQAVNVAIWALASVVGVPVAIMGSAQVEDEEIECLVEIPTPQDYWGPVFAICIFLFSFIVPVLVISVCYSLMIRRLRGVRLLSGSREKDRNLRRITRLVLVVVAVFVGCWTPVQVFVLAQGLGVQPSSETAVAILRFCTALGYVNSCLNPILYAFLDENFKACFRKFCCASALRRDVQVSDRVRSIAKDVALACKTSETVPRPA

Row | SMILES | IC50
1 | CCNC(=O)C1(NCC[C@H]2CC[C@H](c3ncc(F)cc3Cl)CC2)CCOCC1 | 10 to 100 nM
2 | Fc1ccc(C2CCC(CCN[C@H]3CC[C@@H](F)C3)CC2)c(Cl)c1 (stereo partly specified) | < 1 nM
3 | Fc1cnc([C@H]2CC[C@@H](CCNC3CCOCC3)CC2)nc1 | 100 to 1000 nM
4 | NC(=O)C1(NCC[C@H]2CC[C@@H](c3cc(F)ccc3Cl)CC2)CCOCC1 | 10 to 100 nM
5 | Cc1cc(F)ccc1C1CCC(CCNC2(C)CCCC2)CC1 (stereo unspecified) | 10 to 100 nM
6 | CN1CCC(NCC[C@H]2CC[C@@H](c3ccc(F)cc3Cl)CC2)CC1=O (stereo partly specified) | 10 to 100 nM
7 | Fc1ccc(C2CCC(CCNC3CCCC3)CC2)c(F)c1 (stereo unspecified) | 10 to 100 nM
8 | CC(=O)N1CCC(NCCC2CCC(c3ccc(Cl)cc3F)CC2)CC1 (stereo unspecified) | 100 to 1000 nM
9 | Oc1cccc([C@H]2CC[C@@H](CCNC3CCOCC3)CC2)c1 | 100 to 1000 nM
10 | Fc1ccc([C@H]2CC[C@@H](CCNC3CCC(F)(F)C3)CC2)c(Cl)c1 (stereo partly specified) | < 1 nM
11 | NC(=O)C1(NCC[C@H]2CC[C@@H](c3ccc(F)cc3C(F)(F)F)CC2)CCOCC1 | 1 to 10 nM
12 | Fc1ccc([C@H]2CC[C@H](CCNC3CCOCC3)CC2)c(F)c1 | 1 to 10 nM
13 | NC(=O)C1(NCC[C@H]2CC[C@H](c3cc(F)ccc3Cl)CC2)CCOCC1 | 10 to 100 nM
14 | CCNC(=O)C1(NCC[C@H]2CC[C@@H](c3ccc(F)cc3Cl)CC2)CCOCC1 | 1 to 10 nM
15 | Clc1cccnc1[C@H]1CC[C@H](CCNC2CCOCC2)CC1 | 10 to 100 nM
16 | NC(=O)C1(NCC[C@H]2CC[C@H](c3ccc(F)cc3C(F)(F)F)CC2)CCOCC1 | 10 to 100 nM
17 | Oc1cccc([C@H]2CC[C@H](CCNC3CCOCC3)CC2)c1 | 100 to 1000 nM
18 | NC(=O)C1(NCCC2CCC(c3cc(F)ccc3Cl)CC2)CCCC1 (stereo unspecified) | 100 to 1000 nM
19 | NC(=O)C1(NCCC2CCC(c3ccc(F)cc3F)CC2)CCCC1 (stereo unspecified) | 100 to 1000 nM
20 | Fc1cc(Cl)ccc1C1CCC(CCNC2CCCC2)CC1 (stereo unspecified) | 10 to 100 nM
21 | CN1CCC(NCCC2CCC(c3ncc(F)cc3Cl)CC2)CC1 (stereo unspecified) | 100 to 1000 nM
22 | CC1(NCC[C@H]2CC[C@H](c3ncc(F)cc3Cl)CC2)CCNC(=O)C1 (stereo partly specified) | 10 to 100 nM
23 | Cc1cc(F)c(F)cc1[C@H]1CC[C@H](CCN[C@@H]2CCNC(=O)C2)CC1 | 10 to 100 nM

Row | SMILES | IC50
24 | Fc1ccc([C@H]2CC[C@H](CCNC3CCOCC3)CC2)c(Cl)c1 | 1 to 10 nM
25 | CC1(NCCC2CCC(c3ccccc3Cl)CC2)CCCC1 (stereo unspecified) | 100 to 1000 nM
26 | Fc1cccc(Cl)c1[C@H]1CC[C@H](CCNC2CCOCC2)CC1 | 1 to 10 nM
27 | OC1COCCC1NCC[C@H]1CC[C@@H](c2ccc(F)cc2Cl)CC1 (stereo partly specified) | < 1 nM
28 | COCC1(NCCC2CCC(c3ncc(F)cc3Cl)CC2)CCOCC1 (stereo unspecified) | 100 to 1000 nM
29 | Fc1cccc(Cl)c1C1CCC(CCNC2CCCCC2)CC1 (stereo unspecified) | 1 to 10 nM
30 | Clc1ccccc1C1CCC(CCNC2CCOCC2)CC1 (stereo unspecified) | 1 to 10 nM
31 | Cc1cc(F)c(F)cc1[C@H]1CC[C@H](CCNC2(C(N)=O)CCOCC2)CC1 | 100 to 1000 nM
32 | NC(=O)C1(NCC[C@H]2CC[C@H](c3ncc(F)cc3Cl)CC2)CCOCC1 | 10 to 100 nM
33 | CC1(NCC[C@H]2CC[C@@H](c3ccc(F)cc3Cl)CC2)CCNC(=O)C1 (stereo partly specified) | 10 to 100 nM
34 | Fc1ccc([C@H]2CC[C@@H](CCNC3CCCC3(F)F)CC2)c(Cl)c1 (stereo partly specified) | 10 to 100 nM
35 | Cc1cc(F)ccc1[C@H]1CC[C@@H](CCNC2CCOCC2)CC1 | < 1 nM
36 | NC(=O)N1CCC(NCCC2CCC(c3ncc(F)cc3Cl)CC2)CC1 (stereo unspecified) | 100 to 1000 nM
37 | NC(=O)C1(NCC[C@H]2CC[C@@H](c3ccc(F)cc3Cl)CC2)CCOCC1 | 1 to 10 nM
38 | CC(=O)N1CCC(NCCC2CCC(c3ccc(F)cc3C)CC2)CC1 (stereo unspecified) | 100 to 1000 nM
39 | CC1(NCCC2CCC(c3ncccc3Cl)CC2)CCOCC1 (stereo unspecified) | 100 to 1000 nM
40 | Cc1cccnc1C1CCC(CCNC2CCCC2)CC1 (stereo unspecified) | 100 to 1000 nM
41 | Cc1nccnc1[C@H]1CC[C@@H](CCNC2CCOCC2)CC1 | 100 to 1000 nM
42 | O=C1C[C@H](NCC[C@H]2CC[C@@H](c3ccc(F)cc3Cl)CC2)CCN1 | < 1 nM
43 | COCC1(NCC[C@H]2CC[C@@H](c3ccc(F)cc3Cl)CC2)CCOCC1 | 1 to 10 nM
44 | CN1CCC(NCCC2CCC(c3ccc(Cl)cc3F)CC2)CC1 (stereo unspecified) | 100 to 1000 nM
45 | CC(=O)N1CCC(NCC[C@H]2CC[C@@H](c3ccc(F)cc3Cl)CC2)C1 (stereo partly specified) | 10 to 100 nM
46 | CC1(NCCC2CCC(c3c(F)cccc3Cl)CC2)CCCC1 (stereo unspecified) | 10 to 100 nM

Row | SMILES | IC50
47 | Cc1cnccc1C1CCC(CCNC2CCOCC2)CC1 (stereo unspecified) | 100 to 1000 nM
48 | Cc1cc(F)ccc1[C@H]1CC[C@H](CCNC2CCOCC2)CC1 | 1 to 10 nM
49 | Cc1c(C#N)cccc1[C@H]1CC[C@H](CCNC2CCOCC2)CC1 | 100 to 1000 nM
50 | Fc1cnc([C@H]2CC[C@H](CCNC3CCOCC3)CC2)c(Cl)c1 | 1 to 10 nM
51 | CNC(=O)C1(NCC[C@H]2CC[C@H](c3ncc(F)cc3Cl)CC2)CCOCC1 | 1 to 10 nM
52 | CC1(NCCC2CCC(c3ncccc3Cl)CC2)CCCC1 (stereo unspecified) | 100 to 1000 nM
53 | Cc1cc(F)ccc1[C@H]1CC[C@@H](CCNC2(C(N)=O)CCOCC2)CC1 | 1 to 10 nM
54 | Fc1cccc(C2CCC(CCNC3CCCCC3)CC2)c1Cl (stereo unspecified) | 10 to 100 nM
55 | Clc1cccnc1[C@H]1CC[C@@H](CCNC2CCOCC2)CC1 | 10 to 100 nM
56 | CNC(=O)C1(NCCC2CCC(c3ncccc3Cl)CC2)CCCC1 (stereo unspecified) | 100 to 1000 nM
57 | NC(=O)C1(NCCC2CCC(c3ccccc3Cl)CC2)CCCC1 (stereo unspecified) | 100 to 1000 nM
58 | Fc1ccc(Cl)c(C2CCC(CCNC3CCOCC3)CC2)c1 (stereo unspecified) | 1 to 10 nM
59 | Cc1cccnc1C1CCC(CCNC2(C)CCOCC2)CC1 (stereo unspecified) | 100 to 1000 nM
60 | Cc1cccnc1[C@H]1CC[C@H](CCNC2CCOCC2)CC1 | 100 to 1000 nM
61 | Cc1cc(F)c(F)cc1[C@H]1CC[C@@H](CCN[C@@H]2CCNC(=O)C2)CC1 | 1 to 10 nM
62 | COCC1(NCCC2CCC(c3ccccc3Cl)CC2)CCOCC1 (stereo unspecified) | 10 to 100 nM
63 | CN(C)C(=O)C1(NCC[C@H]2CC[C@@H](c3ccc(F)cc3Cl)CC2)CCCC1 | 100 to 1000 nM
64 | CC1(NCCC2CCC(c3cc(F)ccc3Cl)CC2)CCCC1 (stereo unspecified) | 100 to 1000 nM
65 | O=C1NCCC1NCC[C@H]1CC[C@@H](c2ccc(F)cc2Cl)CC1 (stereo partly specified) | 1 to 10 nM
66 | Fc1ccc(C2CCC(CCNC3CCOCC3)CC2)c(Cl)c1 (mixture of isomers) | < 1 nM
67 | Cc1cc(F)ccc1[C@H]1CC[C@H](CCNC2(C(N)=O)CCOCC2)CC1 | 10 to 100 nM
68 | O=C1C[C@H](NCC[C@H]2CC[C@H](c3ncc(F)cc3Cl)CC2)CCN1 | 1 to 10 nM
69 | Cc1cnccc1[C@H]1CC[C@H](CCNC2CCOCC2)CC1 | 100 to 1000 nM

Row | SMILES | IC50
70 | O=C1CC(NCC[C@H]2CC[C@@H](c3ccc(F)cc3Cl)CC2)CCN1 (stereo partly specified) | < 1 nM
71 | Cc1c(F)c(F)ccc1[C@H]1CC[C@@H](CCNC2(C(N)=O)CCOCC2)CC1 | 10 to 100 nM
72 | CNC(=O)C1(NCC[C@H]2CC[C@@H](c3ccc(F)cc3Cl)CC2)CCCC1 | 1 to 10 nM
73 | Cc1cc(F)ccc1C1CCC(CCNC2CCCC2)CC1 (stereo unspecified) | 1 to 10 nM
74 | CCNC(=O)C1(NCC[C@H]2CC[C@@H](c3ccc(F)cc3C(F)(F)F)CC2)CCOCC1 | 1 to 10 nM
75 | O=C1C[C@H](NCC[C@H]2CC[C@@H](c3ncc(F)cc3Cl)CC2)CCN1 | 1 to 10 nM
76 | NC(=O)C1(NCC[C@H]2CC[C@@H](c3c(F)cc(F)cc3Cl)CC2)CCOCC1 | 1 to 10 nM
77 | CC1(NCCC2CCC(c3ccc(F)cc3F)CC2)CCCC1 (stereo unspecified) | 100 to 1000 nM
78 | NC(=O)C1(NCC[C@H]2CC[C@H](c3ncccc3Cl)CC2)CCOCC1 | 100 to 1000 nM
79 | CO[C@@H]1COCC[C@@H]1NCC[C@H]1CC[C@@H](c2ccc(F)cc2Cl)CC1 | 1 to 10 nM
80 | CNC(=O)C1(NCC[C@H]2CC[C@H](c3ccc(F)cc3F)CC2)CCOCC1 | 1 to 10 nM
81 | Cc1ccncc1[C@H]1CC[C@H](CCNC2CCOCC2)CC1 | 100 to 1000 nM
82 | CNC(=O)C1(NCCC2CCC(c3ccc(Cl)cc3F)CC2)CCCC1 (stereo unspecified) | 100 to 1000 nM
83 | NC(=O)C1(NCC[C@H]2CC[C@H](c3cccc(F)c3Cl)CC2)CCOCC1 | 100 to 1000 nM
84 | CS(=O)(=O)N1CCC(NCC[C@H]2CC[C@@H](c3ccc(F)cc3Cl)CC2)CC1 | 10 to 100 nM
85 | Fc1cccc(Cl)c1[C@H]1CC[C@@H](CCNC2CCOCC2)CC1 | < 1 nM
86 | NC(=O)C1(NCC[C@H]2CC[C@@H](c3ncccc3Cl)CC2)CCOCC1 | 100 to 1000 nM
87 | CNC(=O)C1(NCC[C@H]2CC[C@@H](c3ncc(F)cc3Cl)CC2)CCOCC1 | 1 to 10 nM
88 | NC(=O)C1(NCC[C@H]2CC[C@H](c3c(F)cc(F)cc3Cl)CC2)CCOCC1 | 1 to 10 nM
89 | COCC1(NCCC2CCC(c3cnccc3C)CC2)CCOCC1 (stereo unspecified) | 100 to 1000 nM
90 | Cc1ccncc1[C@H]1CC[C@@H](CCNC2CCOCC2)CC1 | 100 to 1000 nM
91 | Cc1cccnc1C1CCC(CCNC2CCOCC2)CC1 (stereo unspecified) | 10 to 100 nM
